Results reported in ChEMBL document CHEMBL1201862, “PubChem BioAssay data set” (2004).
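A five-concentration, 48-hour dose response in 96-well plates underlies each endpoint, interpolated linearly between surrounding concentrations. Abbreviation: GI50, concentration required for 50% inhibition of growth.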 Calls of active or inactive are those of the source. Rule as the data show it: active = GI50 up to about 1.1 µM and inactive = higher. Where a SMILES comes first, the peptide text is derived from it. The star is where a group is joined. Boc = CC(C)(C)OC(=O)*; Bn = c1ccc(C*)cc1

Assays:
Experiment in all cases: NCI tumour cell line growth inhibition, 48 h
EKVX = test system: EKVX
NCI-H23 = test system: NCI-H23
HCT-15 = test system: HCT-15
SNB-75 = test system: SNB-75
MOLT-4 = test system: MOLT-4
U-251 = test system: U-251
UO-31 = test system: UO-31
MDA-MB-435 = test system: MDA-MB-435
SK-MEL-5 = test system: SK-MEL-5
786-0 = test system: 786-0
CCRF-CEM = test system: CCRF-CEM
NCI-H522 = test system: NCI-H522
MDA-N = test system: MDA-N
MCF7 = test system: MCF7
UACC-257 = test system: UACC-257
MDA-MB-231 = test system: MDA-MB-231
LOX IMVI = test system: LOX IMVI
TK-10 = test system: TK-10
RXF 393 = test system: RXF 393
Malme-3M = test system: Malme-3M

Structure (SMILES)	GI50 (EKVX)	GI50 (NCI-H23)	GI50 (HCT-15) [µM]	GI50 (SNB-75)	GI50 (MOLT-4)	GI50 (U-251)	GI50 (UO-31)	GI50 (MDA-MB-435)	GI50 (SK-MEL-5)	GI50 (786-0)	GI50 (CCRF-CEM)	GI50 (NCI-H522)	GI50 (MDA-N)	GI50 (MCF7)	GI50 (UACC-257)	GI50 (MDA-MB-231)	GI50 (LOX IMVI)	GI50 (TK-10)	GI50 (RXF 393)	GI50 (Malme-3M)
O=C(O)CN1CCN(CC(=O)O)CCN(CC(=O)O)CCN(CC(=O)O)CC1 [TETRAXETAN]	> 100 µM (inactive)	> 100 µM (inactive)	> 100	> 100 µM (inactive)	> 100 µM (inactive)	> 100 µM (inactive)	> 100 µM (inactive)	> 100 µM (inactive)	> 100 µM (inactive)	> 100 µM (inactive)	> 100 µM (inactive)	> 100 µM (inactive)	> 100 µM (inactive)	> 100 µM (inactive)	> 100 µM (inactive)	> 100 µM (inactive)	> 100 µM (inactive)	> 100 µM (inactive)	> 100 µM (inactive)	–
COC(=O)C(CC(C)C)NC(=O)CNC(=O)C(Cc1ccc(OCc2ccccc2)cc1)NC(=O)C(COCc1ccccc1)NC(=O)OC(C)(C)C (configuration not stated) (Boc-S(Bn)Y(Bn)GL-OMe; configuration not given here)	> 100 µM (inactive)	> 100 µM (inactive)	–	> 100 µM (inactive)	> 100 µM (inactive)	> 100 µM (inactive)	> 100 µM (inactive)	> 100 µM (inactive)	> 100 µM (inactive)	> 100 µM (inactive)	–	72.8 µM (inactive)	> 100 µM (inactive)	> 100 µM (inactive)	–	> 100 µM (inactive)	58.5 µM (inactive)	> 100 µM (inactive)	> 100 µM (inactive)	> 100 µM (inactive)
CCOC(=O)CCC(NC(=O)c1ccc(OCc2nc3cc(C(F)(F)F)ccc3nc2-c2ccccc2)cc1)C(=O)OCC (configuration not stated)	> 100 µM (inactive)	85.3 µM (inactive)	68.2	4.07 µM (inactive)	40 µM (inactive)	> 100 µM (inactive)	37.9 µM (inactive)	84.1 µM (inactive)	31.6 µM (inactive)	> 100 µM (inactive)	58.2 µM (inactive)	> 100 µM (inactive)	55.5 µM (inactive)	5.37 µM (inactive)	67.3 µM (inactive)	> 100 µM (inactive)	> 100 µM (inactive)	–	85.7 µM (inactive)	87.3 µM (inactive)
CC1CN(CCO)CC(C)O1 (configuration not stated)	> 100 µM (inactive)	> 100 µM (inactive)	> 100	> 100 µM (inactive)	> 100 µM (inactive)	> 100 µM (inactive)	> 100 µM (inactive)	> 100 µM (inactive)	> 100 µM (inactive)	> 100 µM (inactive)	> 100 µM (inactive)	> 100 µM (inactive)	> 100 µM (inactive)	> 100 µM (inactive)	> 100 µM (inactive)	> 100 µM (inactive)	–	> 100 µM (inactive)	> 100 µM (inactive)	> 100 µM (inactive)
O=C(/C=C/C=C/c1ccccc1)c1ccccc1	15.3 µM (inactive)	–	12.2	17.8 µM (inactive)	14.6 µM (inactive)	14 µM (inactive)	18.3 µM (inactive)	17.7 µM (inactive)	16.3 µM (inactive)	14.3 µM (inactive)	–	4.66 µM (inactive)	16.2 µM (inactive)	16.3 µM (inactive)	16.9 µM (inactive)	21.5 µM (inactive)	15.8 µM (inactive)	19.9 µM (inactive)	17.6 µM (inactive)	10 µM (inactive)
O=C(O)c1nc2cc(C(F)(F)F)ccc2nc1Nc1ccc(F)cc1	21.9 µM (inactive)	16 µM (inactive)	–	18.5 µM (inactive)	13.6 µM (inactive)	18.3 µM (inactive)	15.8 µM (inactive)	7.71 µM (inactive)	16.2 µM (inactive)	22.4 µM (inactive)	12.6 µM (inactive)	7.5 µM (inactive)	22.5 µM (inactive)	22.2 µM (inactive)	20.6 µM (inactive)	22.9 µM (inactive)	18.7 µM (inactive)	20 µM (inactive)	16.3 µM (inactive)	12.4 µM (inactive)
O=S1(=O)CCN(Cc2ccccc2)/C1=N\S(=O)(=O)c1ccc(Cl)cc1	15.1 µM (inactive)	18.9 µM (inactive)	20.3	21.2 µM (inactive)	20.5 µM (inactive)	18 µM (inactive)	17.5 µM (inactive)	19.1 µM (inactive)	21.2 µM (inactive)	19.7 µM (inactive)	24.9 µM (inactive)	14.5 µM (inactive)	18.2 µM (inactive)	22.8 µM (inactive)	20.7 µM (inactive)	> 100 µM (inactive)	18.1 µM (inactive)	17 µM (inactive)	19.5 µM (inactive)	–
COc1cccc2c1OC1(C=C2)Oc2ccccc2C(=O)N1C (configuration not stated)	18.4 µM (inactive)	31.2 µM (inactive)	32.5	16.3 µM (inactive)	15.7 µM (inactive)	39.8 µM (inactive)	19.8 µM (inactive)	21.6 µM (inactive)	68.1 µM (inactive)	35.5 µM (inactive)	12.2 µM (inactive)	19.1 µM (inactive)	15 µM (inactive)	37.8 µM (inactive)	44.8 µM (inactive)	27.2 µM (inactive)	2.05 µM (inactive)	24.9 µM (inactive)	25.5 µM (inactive)	–
C/C(=C1/N=C(c2ccccc2)OC1=O)c1cccs1	> 100 µM (inactive)	> 100 µM (inactive)	> 100	76.4 µM (inactive)	> 100 µM (inactive)	> 100 µM (inactive)	–	> 100 µM (inactive)	> 100 µM (inactive)	76 µM (inactive)	> 100 µM (inactive)	59.8 µM (inactive)	> 100 µM (inactive)	> 100 µM (inactive)	> 100 µM (inactive)	66.7 µM (inactive)	> 100 µM (inactive)	> 100 µM (inactive)	> 100 µM (inactive)	> 100 µM (inactive)
COC(=O)C(=O)C(C(=O)OC)C(=O)C(=O)Nc1c(Cl)cc([N+](=O)[O-])cc1Cl (configuration not stated)	48.6 µM (inactive)	> 100 µM (inactive)	92.9	64.1 µM (inactive)	–	68.7 µM (inactive)	> 100 µM (inactive)	> 100 µM (inactive)	> 100 µM (inactive)	40.7 µM (inactive)	> 10 µM (inactive)	27 µM (inactive)	> 100 µM (inactive)	> 100 µM (inactive)	> 100 µM (inactive)	> 100 µM (inactive)	83 µM (inactive)	62.4 µM (inactive)	81.3 µM (inactive)	> 100 µM (inactive)
CCCN1C(=O)CN(S(=O)(=O)c2ccc(Cl)cc2)C1=O	> 100 µM (inactive)	> 100 µM (inactive)	> 100	> 100 µM (inactive)	–	> 100 µM (inactive)	> 100 µM (inactive)	> 100 µM (inactive)	> 100 µM (inactive)	> 100 µM (inactive)	> 100 µM (inactive)	> 100 µM (inactive)	> 100 µM (inactive)	> 100 µM (inactive)	> 100 µM (inactive)	> 100 µM (inactive)	> 100 µM (inactive)	> 100 µM (inactive)	> 100 µM (inactive)	> 100 µM (inactive)
CCCc1nc2c(n1CC)C(=O)c1ccccc1C2=O	–	39.4 µM (inactive)	28.3	24.8 µM (inactive)	17 µM (inactive)	59.3 µM (inactive)	–	17.5 µM (inactive)	29.8 µM (inactive)	> 100 µM (inactive)	24.5 µM (inactive)	24.3 µM (inactive)	20 µM (inactive)	51.1 µM (inactive)	18 µM (inactive)	79.6 µM (inactive)	–	66.1 µM (inactive)	26.9 µM (inactive)	22.2 µM (inactive)
CC(=O)NC1=C(NCCCl)C(=O)c2ccccc2C1=O	> 100 µM (inactive)	26.1 µM (inactive)	32.1	24.3 µM (inactive)	25.1 µM (inactive)	39.1 µM (inactive)	–	16.6 µM (inactive)	16.9 µM (inactive)	50.5 µM (inactive)	19.1 µM (inactive)	20.5 µM (inactive)	21.4 µM (inactive)	35.2 µM (inactive)	15 µM (inactive)	36.7 µM (inactive)	–	–	30 µM (inactive)	13.9 µM (inactive)
OCCOCn1cc(Cn2ncc3c(SCc4ccccc4)ncnc32)nn1	38 µM (inactive)	38.3 µM (inactive)	37.4	46 µM (inactive)	14.4 µM (inactive)	44.1 µM (inactive)	61.8 µM (inactive)	15.5 µM (inactive)	30 µM (inactive)	48.4 µM (inactive)	–	25.4 µM (inactive)	14.4 µM (inactive)	43.6 µM (inactive)	53.7 µM (inactive)	88.1 µM (inactive)	61.7 µM (inactive)	> 100 µM (inactive)	31.6 µM (inactive)	76.2 µM (inactive)
OC1C#CCSCC#C/C=C\1 (configuration not stated)	> 100 µM (inactive)	80.4 µM (inactive)	> 100	> 100 µM (inactive)	–	> 100 µM (inactive)	> 100 µM (inactive)	56 µM (inactive)	–	3.58 µM (inactive)	27 µM (inactive)	17.8 µM (inactive)	81.3 µM (inactive)	53.3 µM (inactive)	30.9 µM (inactive)	> 100 µM (inactive)	45.2 µM (inactive)	> 100 µM (inactive)	18 µM (inactive)	47.1 µM (inactive)
